Patent US20250215029A1 (Recludix Pharma, Inc., priority 2022, published 2025)
Like-named read-outs stand apart in the source and are kept apart here.

Tests used:
[1] = biological target: T1, Recombinant STAT3 protein (STAT3 (G127-I722)) (Homo sapiens, UniProt P40763); test: STAT3 Fluorescence Polarization (FP) Assay; type: binding; conditions: probe 5-FAM-GpYLPQTV-NH2 2 nM, 45-minute incubation
T1 construct: Recombinant STAT3 protein (STAT3 (G127-I722))
Method: STAT3 Fluorescence Polarization (FP) Assay
An FP assay was developed to determine IC50 values for test substances. Recombinant STAT3 protein (STAT3 (G127-I722)) at 25 nM was combined with a fluorescently labeled, phosphotyrosine peptide probe (5-FAM-GpYLPQTV-NH2) at 2 nM in FP buffer (10 mM HEPES pH 7.4, 50 mM NaCl, 1 mM EDTA, 0.05% Tween 20.2 mM DTT). 50 μL of STAT3-probe mixture was added to serial diluted compounds in black, 96-well plates (Greiner BioOne 655076) to a final concentration of 1% DMSO. Reaction components were mixed, and FP was measured after 45-minute incubation at room temperature using a Tecan Spark multimode plate reader. FP signal (mP) was plotted against the log concentration of the test substances and IC50 values were calculated by nonlinear regression analysis using GraphPad Prism software. For STAT3 FP assay, A=≤100 nM; B=>100-1000 nM; C=>1-10 μM; and D=>10 μM.

[2] = biological target: T2, Recombinant STAT6 protein (STAT6 (W123-T658)) (Homo sapiens, UniProt P42226); test: STAT6 Fluorescence Polarization (FP) Assay; type: binding; conditions: probe 5-FAM-Ap[…]-NH2 2 nM, 45-minute incubation
T2 construct: Recombinant STAT6 protein (STAT6 (W123-T658))
T2 sequence (P42226 123-658): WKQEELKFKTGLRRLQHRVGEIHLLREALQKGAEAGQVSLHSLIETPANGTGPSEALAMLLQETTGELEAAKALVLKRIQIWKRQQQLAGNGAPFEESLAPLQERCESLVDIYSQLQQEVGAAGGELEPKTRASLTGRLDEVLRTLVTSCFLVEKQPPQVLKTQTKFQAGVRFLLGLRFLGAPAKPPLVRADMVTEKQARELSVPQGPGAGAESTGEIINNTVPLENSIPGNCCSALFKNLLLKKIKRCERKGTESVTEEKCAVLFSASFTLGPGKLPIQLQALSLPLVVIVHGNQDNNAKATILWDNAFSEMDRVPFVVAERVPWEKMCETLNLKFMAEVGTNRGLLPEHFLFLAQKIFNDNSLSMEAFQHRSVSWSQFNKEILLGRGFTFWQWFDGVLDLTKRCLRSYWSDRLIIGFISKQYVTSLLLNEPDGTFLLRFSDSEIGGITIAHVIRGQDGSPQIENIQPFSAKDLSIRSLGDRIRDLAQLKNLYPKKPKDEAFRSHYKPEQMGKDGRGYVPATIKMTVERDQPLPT
Method: STAT6 Fluorescence Polarization (FP) Assay
An FP assay was developed to determine IC50 values for test substances. Recombinant STAT6 protein (STAT6 (W123-T658)) at 250 nM was combined with a fluorescently labeled, phosphotyrosine peptide probe (5-FAM-Ap[…]-NH2) at 2 nM in FP buffer (10 mM HEPES pH 7.4, 50 mM NaCl, 1 mM EDTA, 0.05% Tween 20, 2 mM DTT). 50 μL of STAT6-probe mixture was added to serial diluted compounds in black, 96-well plates (Greiner BioOne 655076) to a final concentration of 1% DMSO. Reaction components were mixed, and FP was measured after 45-minute incubation at room temperature using a Tecan Spark multimode plate reader. FP signal (mP) was plotted against the log concentration of the test substances and IC50 values were calculated by nonlinear regression analysis using GraphPad Prism software. For STAT6 FP assay, A=≤300 nM; B=>300-3000 nM; C=>3-30 μM; and D=>30 μM.

[3] = STAT3 (G127-I722) 25 nM, read-out: STAT3 (FP assay IC50 class)
[4] = STAT6 (W123-T658) 250 nM, read-out: STAT6 (FP assay IC50 class)
[5] = STAT3 25 nM, read-out: STAT3 (FP assay IC50)
[6] = STAT6 250 nM, read-out: STAT6 (FP assay IC50)

T1 sequence (P40763 127-722): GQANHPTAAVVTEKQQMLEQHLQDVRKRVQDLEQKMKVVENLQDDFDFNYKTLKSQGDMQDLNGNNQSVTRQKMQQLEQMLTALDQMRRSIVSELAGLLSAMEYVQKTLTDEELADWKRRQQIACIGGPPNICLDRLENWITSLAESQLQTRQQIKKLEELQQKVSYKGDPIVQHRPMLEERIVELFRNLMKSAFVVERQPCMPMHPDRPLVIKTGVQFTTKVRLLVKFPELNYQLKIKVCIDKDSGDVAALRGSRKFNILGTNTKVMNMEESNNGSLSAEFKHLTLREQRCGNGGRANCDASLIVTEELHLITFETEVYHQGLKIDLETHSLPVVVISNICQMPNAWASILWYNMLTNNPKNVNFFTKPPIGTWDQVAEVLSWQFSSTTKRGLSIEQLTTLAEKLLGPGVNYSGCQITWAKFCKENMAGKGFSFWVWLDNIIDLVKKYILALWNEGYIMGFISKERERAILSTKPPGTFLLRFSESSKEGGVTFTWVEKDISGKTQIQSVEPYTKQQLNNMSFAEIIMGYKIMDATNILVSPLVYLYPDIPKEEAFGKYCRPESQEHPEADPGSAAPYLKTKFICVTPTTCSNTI

Row | IC50 [1, 3] [µM] | IC50 [2, 4] [µM] | IC50 [1, 5] [µM] | IC50 [2, 6] [µM] | SMILES
1 | < 0.1 | 3 to 30 |  |  | NC(=O)N1CC[C@@H](NC(=O)[C@@H]2CC[C@@H]3CCCC[C@H](NC(=O)c4cc5cc(C(F)P(=O)(O)O)ccc5s4)C(=O)N32)C1 (stereo partly drawn) [Compound 532, ((2-(((3S,6S,10aS)-3-(((R)-1-carbamoylpyrrolidin-3-yl)carbamoyl)-5-oxodecahydropyrrolo[1,2-a]azocin-6-yl)carbamoyl)benzo[b]thiophen-5-yl)fluoromethyl)phosphonic acid]
2 | 1 to 10 | 3 to 30 |  |  | CN(C)c1cccnc1C1CN(C(=O)[C@@H]2CC[C@@H]3CCC[C@H](NC(=O)c4cc5cc(C(F)P(=O)(O)O)ccc5s4)C(=O)N32)C1 (stereo partly drawn) [Compound 693, ((2-(((3S,6S,9aS)-3-(3-(3-(dimethylamino)pyridin-2-yl)azetidine-1-carbonyl)-5-oxooctahydro-1H-pyrrolo[1,2-a]azepin-6-yl)carbamoyl)benzo [b]thiophen-5-yl)fluoromethyl) phosphonic acid]
3 | 0.1 to 1 | 3 to 30 |  |  | CCOc1cc(C2CN(C(=O)[C@@H]3CC[C@@H]4CCC[C@H](NC(=O)c5cc6cc([C@@H](F)P(=O)(O)O)ccc6s5)C(=O)N43)C2)ccn1 (single isomer, unassigned) [Compound 709]
4 | 1 to 10 | 0.3 to 3 |  |  | O=C(N[C@H]1CCCC[C@H]2CC[C@@H](C(=O)N3CCC(c4ccn(C5CC5)c(=O)c4)C3)N2C1=O)c1ccc2ccc(C(F)P(=O)(O)O)cc2c1 (stereo partly drawn) [Compound 906, ((7-(((3S,6S,10aS)-3-(3-(1-cyclopropyl-2-oxo-1,2-dihydropyridin-4-yl)pyrrolidine-1-carbonyl)-5-oxodecahydropyrrolo[1,2-a]azocin-6-yl)carbamoyl)naphthalen-2-yl)fluoromethyl) phosphonic acid]
5 |  |  | < 0.1 | 3 to 30 | CC1CCC[C@H](NC(=O)c2cc3cc(C(F)(F)P(=O)(O)O)ccc3s2)C(=O)N2[C@@H]1CC[C@H]2C(=O)N1CC(c2cccnc2)C1 (stereo partly drawn) [Compound 103, (difluoro(2-(((3S,6S,10aR)-10-methyl-5-oxo-3-(3-(pyridin-3-yl)azetidine-1-carbonyl)decahydropyrrolo [1,2-a]azocin-6-yl)carbamoyl)benzo[b]thiophen-5-yl)methyl) phosphonic acid]

The remaining lines, values behind:

Row | SMILES | IC50 [1, 3] [µM] | IC50 [2, 4] [µM] | IC50 [1, 5] [µM] | IC50 [2, 6] [µM]
6 | CC1(c2ccccn2)CN(C(=O)[C@@H]2CC[C@@H]3CCC[C@H](NC(=O)c4cc5cc(CP(=O)(O)O)ccc5s4)C(=O)N32)C1 [Compound 548, ((2-(((3S,6S,9aS)-3-(3-methyl-3-(pyridin-2-yl)azetidine-1-carbonyl)-5-oxooctahydro-1H-pyrrolo[1,2-a]azepin-6-yl)carbamoyl)benzo[b]thiophen-5-yl)methyl)phosphonic acid] | 1 to 10 | 3 to 30 |  | 
7 | CC(c1ccc2ccc(C(=O)N[C@H]3CCCC[C@H]4CC[C@@H](C(=O)N5C[C@@H](c6ccccc6)CC56CC6)N4C3=O)cc2c1)P(=O)(O)O (single isomer, unassigned) [Compound 897] | 1 to 10 | 3 to 30 |  | 
8 | O=C(N[C@H]1CCC[C@H]2CC[C@@H](C(=O)N3CC(c4cncnc4N4CCC4)C3)N2C1=O)c1cc2cc(CP(=O)(O)O)ccc2s1 [Compound 681, ((2-(((3S,6S,9aS)-3-(3-(4-(azetidin-1-yl)pyrimidin-5-yl)azetidine-1-carbonyl)-5-oxooctahydro-1H-pyrrolo[1,2-a]azepin-6-yl)carbamoyl)benzo [b]thiophen-5-yl)methyl) phosphonic acid] | < 0.1 | 3 to 30 |  | 
9 | CN(C)C(=O)N1CC[C@@H](NC(=O)[C@@H]2CC[C@@H]3CCCC[C@H](NC(=O)c4cc5cc(C(F)P(=O)(O)O)ccc5s4)C(=O)N32)C1 (stereo partly drawn) [Compound 529, ((2-(((3S,6S,10aS)-3-(((R)-1-(dimethylcarbamoyl)pyrrolidin-3-yl)carbamoyl)-5-oxodecahydropyrrolo[1,2-a]azocin-6-yl)carbamoyl)benzo[b]thiophen-5-yl)fluoromethyl)phosphonic acid] | 0.1 to 1 | 3 to 30 |  | 
10 | N#C[C@@H]1CN(C(=O)[C@@H]2CCC[C@@H]3CCCC[C@H](NC(=O)c4cc5cc(C(F)(F)P(=O)(O)O)ccc5s4)C(=O)N32)CC1c1ccccc1 (mixture of isomers) [Compound 63, ((2-(((4S,7S,11aS)-4-(rel-(trans)-3-cyano-4-phenylpyrrolidine-1-carbonyl)-6-oxodecahydro-2H-pyrido[1,2-a]azocin-7-yl)carbamoyl)benzo[b]thiophen-5-yl)difluoromethyl) phosphonic acid] |  |  | 0.1 to 1 | ≤ 0.3
11 | O=C(N[C@H]1CC[C@H](N2CCC2)C[C@H]2CC[C@@H](C(=O)N3CC(C(=O)N4CCOCC4)C3)N2C1=O)c1cc2cc(C(F)(F)P(=O)(O)O)ccc2s1 [Compound 20, ((2-(((3S,6S,9S,10aR)-9-(azetidin-1-yl)-3-(3-(morpholine-4-carbonyl)azetidine-1-carbonyl)-5-oxodecahydropyrrolo [1,2-a]azocin-6-yl)carbamoyl)benzo[b]thiophen-5-yl)difluoromethyl) phosphonic acid] |  |  | 0.1 to 1 | 3 to 30
12 | C[C@H]1C[C@H]2CC[C@@H](C(=O)N3CC(c4cnccc4N(C)C)C3)N2C(=O)[C@@H](NC(=O)c2cc3cc([C@H](F)P(=O)(O)O)ccc3s2)C1 [Compound 736, ((R)-(2-(((3S,6S,8R,9aR)-3-(3-(4-(dimethylamino)pyridin-3-yl)azetidine-1-carbonyl)-8-methyl-5-oxooctahydro-1H-pyrrolo[1,2-a]azepin-6-yl)carbamoyl)benzo [b]thiophen-5-yl)fluoromethyl) phosphonic acid] | < 0.1 | 3 to 30 |  | 
13 | O=C(N[C@H]1CCC[C@H]2CC[C@@H](C(=O)N3CC(c4ccccn4)C3)N2C1=O)c1cc2cc(C(F)(F)P(=O)(O)O)ccc2s1 [Compound 108, (difluoro(2-(((3S,6S,9aS)-5-oxo-3-(3-(pyridin-2-yl)azetidine-1-carbonyl)octahydro-1H-pyrrolo[1,2-a]azepin-6-yl)carbamoyl)benzo[b]thiophen-5-yl)methyl) phosphonic acid] |  |  | < 0.1 | 0.3 to 3
14 | O=C(N[C@H]1CCCC[C@H]2CC[C@@H](C(=O)NCc3n[nH]c4ncccc34)N2C1=O)c1cc2cc(C(F)(F)P(=O)(O)O)ccc2s1 [Compound 37, ((2-(((3S,6S,10aS)-3-(((1H-pyrazolo[3,4-b]pyridin-3-yl)methyl)carbamoyl)-5-oxodecahydro-pyrrolo[1,2-a]azocin-6-yl)carbamoyyl)benzo[b]thiophen-5-yl)difluoro-methyl) phosphonic acid] |  |  | 0.1 to 1 | 0.3 to 3
15 | Cn1cc(F)c(C2CN(C(=O)[C@@H]3CC[C@@H]4CCC[C@H](NC(=O)c5cc6cc(C(F)P(=O)(O)O)ccc6s5)C(=O)N43)C2)n1 (stereo partly drawn) [Compound 754, (fluoro(2-(((3S,6S,9aS)-3-(3-(4-fluoro-1-methyl-1H-pyrazol-3-yl)azetidine-1-carbonyl)-5-oxooctahydro-1H-pyrrolo[1,2-a]azepin-6-yl)carbamoyl)benzo [b]thiophen-5-yl)methyl) phosphonic acid] | 1 to 10 | 3 to 30 |  | 
